Measurements reported in patent US20160030416A1, “METHODS OF TREATING B2-BRADYKININ RECEPTOR MEDIATED ANGIOEDEMA” (SHIRE HUMAN GENETIC THERAPIES, INC., priority 2013, published 2016).

How the values were obtained:
[1] = Pharmacokinetics, single oral gavage, 2 formulations, Wistar and Sprague-Dawley rats; assay type: in vivo; settings: for AUC(0-inf) / AUC(0-t) / Cmax / Tmax / half-life: rat, plasma, po
Experimental: Pharmacokinetics and gender differences were evaluated with 2 different formulations of CFMQ (HGT3711) in 2 different types of rat models. These attributes were investigated in a single oral gavage study. Male and female Wistar rats (n=3 per dose group) received CFMQ (HGT3711) at 15, […], and or 150 mg/kg. […] The two vehicle formulations evaluated were formulation 1: 10% N-methyl pyrrolidone (NMP): 10% Ethanol: 30% polyethylene glycol (PEG400): 50% […] (lauroyl polyoxylglycerides); and formulation 2: 10% NMP: 0% PEG400: 20% CREMOPHOR EL (Macrogolglycerol ricinoleate): 25% […] 44/14 (lauroyl polyoxylglycerides): 25% CAPROYOL 90 (Propylene Glycol Caprylate).
Blood samples were taken via cardiac puncture prior to administration and at 0.25 (15 min), 0.50 (30 min), 1, 2, 4, 8 and 24 hours post dose. Plasma concentrations of CFMQ (HGT3711) were determined by LC-MS/MS and nominal dosing concentrations were used in all calculations.

[2] = In vitro microsomal stability, monkey; assay type: in vitro ADME; settings: Monkey (Cynomolgus), Male
Experimental: In vitro metabolic stability studies were performed to determine hepatic stability in vivo. CFMQ was incubated in liver microsomal preparations from mouse, rat, dog, mini-pig, and humans, as well as an additional study with monkey and human. CFMQ was incubated with human and animal liver microsomes at 0.3 mg/mL at 37° C. for 30 or 60 minutes. Additional reference compounds were incubated as controls. Following incubation, samples were analyzed by HPLC-MS/MS.

[3] = Bidirectional permeability in Caco-2 cells; assay type: in vitro ADME, human; settings: human, 5 μM, 120 minutes
Experimental: (§1) To determine bidirectional permeability, CFMQ was examined in an in vitro incubation assay with […] (Caco-2 cell). CFMQ at 5 μM was dosed to the cell monolayers on the apical side (A-to-B) or basolateral side (B-to-A) and incubated at 37° C. with 5% CO2 for 120 minutes. Permeability of Lucifer Yellow (500 μM) was measured to ensure no damage was inflicted to the cell monolayers during the CFMQ flux period. All samples were assayed by LC-MS/MS using electrospray ionization.

[4] = tested on: Caco-2 cell; assay: Bidirectional permeability in Caco-2 cells; assay type: in vitro ADME, human
Experimental: as §1

[5] = Plasma kinetics, intravenous, beagle dogs; assay type: in vivo, female beagle dogs; settings: IV 1 mg/kg
Experimental: CFMQ (HGT3711) was administered to fasted female beagle dogs by a single intravenous injection at 1.0 mg/kg, formulated in 100% PEG200 (Table 10). Blood samples were taken via jugular vein puncture prior to administration and at 0.083 (5 min), 0.25 (15 min), 0.50 (30 min), 1, 4, 8 and 24 hours post dose. Plasma concentrations of CFMQ (HGT3711) were determined by LC-MS/MS and concentrations below the limit of quantitation (1.0 ng/mL) were assigned a value of zero for pharmacokinetic analysis. Nominal dosing concentrations were used in all calculations.

[6] = female, Sprague-Dawley, 75 mg/kg, Formulation 1, S-D (Female)
[7] = female, Sprague-Dawley, 75 mg/kg, Formulation 2, S-D (Female)
[8] = female, Wistar, 15 mg/kg, Formulation 1, Wistar (Female)
[9] = female, Wistar, 15 mg/kg, Formulation 2, Wistar (Female)
[10] = female, Wistar, 75 mg/kg, Formulation 1, Wistar (Female)
[11] = female, Wistar, 75 mg/kg, Formulation 2, Wistar (Female)
[12] = female, Wistar, 150 mg/kg, Formulation 1, Wistar (Female)
[13] = female, Wistar, 150 mg/kg, Formulation 2, Wistar (Female)
[14] = male, Sprague-Dawley, 75 mg/kg, Formulation 1, S-D (Male)
[15] = male, Sprague-Dawley, 75 mg/kg, Formulation 2, S-D (Male)
[16] = male, Wistar, 15 mg/kg, Formulation 1, Wistar (Male)
[17] = male, Wistar, 15 mg/kg, Formulation 2, Wistar (Male)
[18] = male, Wistar, 75 mg/kg, Formulation 1, Wistar (Male)
[19] = male, Wistar, 75 mg/kg, Formulation 2, Wistar (Male)
[20] = male, Wistar, 150 mg/kg, Formulation 1, Wistar (Male)
[21] = male, Wistar, 150 mg/kg, Formulation 2, Wistar (Male)
[22] = female, beagle, dog, plasma, extrapolated to t = 0

Compound: Cc1cc(Cl)c(COc2cccc3c(-n4cc(F)cn4)cc(C)nc23)c(Cn2cccc(C#N)c2=O)n1 [CFMQ, 1-((4-Chloro-3-(((4-(4-fluoro-1H-pyrazol-1-yl)-2-methylquinolin-8-yl)oxy)methyl)-6-methylpyridin-2-yl)methyl)-2-oxo-1,2-dihydropyridine-3-carbonitrile]
- oral exposure in female rats compared to male rats ([1]; average dose normalized AUC values, both S-D and Wistar): 20-40 times
- AUC(0-inf) [1, 6]: 14300 ng·h/mL
- AUC(0-t) [1, 6]: 11900 ng·h/mL
- Cmax [1, 6]: 2280 ng/mL
- Tmax [1, 6]: 0.5 h
- half-life [1, 6]: 2.01 h
- AUC(0-inf) [1, 7]: 20800 ng·h/mL
- AUC(0-t) [1, 7]: 20600 ng·h/mL
- Cmax [1, 7]: 2180 ng/mL
- Tmax [1, 7]: 0.83 h
- half-life [1, 7]: 3.58 h
- AUC(0-inf) [1, 8]: 6650 ng·h/mL
- AUC(0-t) [1, 8]: 4660 ng·h/mL
- Cmax [1, 8]: 1140 ng/mL
- Tmax [1, 8]: 0.83 h
- half-life [1, 8]: 3.1 h
- AUC(0-inf) [1, 9]: 5810 ng·h/mL
- AUC(0-t) [1, 9]: 5210 ng·h/mL
- Cmax [1, 9]: 592 ng/mL
- Tmax [1, 9]: 3.33 h
- half-life [1, 9]: 6.08 h
- AUC(0-inf) [1, 10]: 11100 ng·h/mL
- AUC(0-t) [1, 10]: 11100 ng·h/mL
- Cmax [1, 10]: 2550 ng/mL
- Tmax [1, 10]: 0.58 h
- half-life [1, 10]: 3.13 h
- AUC(0-inf) [1, 11]: 11300 ng·h/mL
- AUC(0-t) [1, 11]: 10700 ng·h/mL
- Cmax [1, 11]: 2200 ng/mL
- Tmax [1, 11]: 0.75 h
- half-life [1, 11]: 3.12 h
- AUC(0-inf) [1, 12]: 9060 ng·h/mL
- AUC(0-t) [1, 12]: 8710 ng·h/mL
- Cmax [1, 12]: 1850 ng/mL
- Tmax [1, 12]: 0.33 h
- half-life [1, 12]: 5.42 h
- AUC(0-inf) [1, 13]: 6440 ng·h/mL
- AUC(0-t) [1, 13]: 6430 ng·h/mL
- Cmax [1, 13]: 1580 ng/mL
- Tmax [1, 13]: 0.33 h
- half-life [1, 13]: 2.64 h
- AUC(0-inf) [1, 14]: 435 ng·h/mL
- AUC(0-t) [1, 14]: 410 ng·h/mL
- Cmax [1, 14]: 187 ng/mL
- Tmax [1, 14]: 0.5 h
- half-life [1, 14]: 1.96 h
- AUC(0-inf) [1, 15]: 745 ng·h/mL
- AUC(0-t) [1, 15]: 673 ng·h/mL
- Cmax [1, 15]: 191 ng/mL
- Tmax [1, 15]: 0.67 h
- half-life [1, 15]: 3.43 h
- AUC(0-inf) [1, 16]: 229 ng·h/mL
- AUC(0-t) [1, 16]: 218 ng·h/mL
- Cmax [1, 16]: 77.4 ng/mL
- Tmax [1, 16]: 0.5 h
- half-life [1, 16]: 1.67 h
- AUC(0-inf) [1, 17]: 155 ng·h/mL
- AUC(0-t) [1, 17]: 175 ng·h/mL
- Cmax [1, 17]: 34.7 ng/mL
- Tmax [1, 17]: 0.83 h
- half-life [1, 17]: 1.74 h
- AUC(0-inf) [1, 18]: 282 ng·h/mL
- AUC(0-t) [1, 18]: 243 ng·h/mL
- Cmax [1, 18]: 155 ng/mL
- Tmax [1, 18]: 0.25 h
- half-life [1, 18]: 4.28 h
- AUC(0-inf) [1, 19]: 261 ng·h/mL
- AUC(0-t) [1, 19]: 219 ng·h/mL
- Cmax [1, 19]: 94.9 ng/mL
- Tmax [1, 19]: 0.5 h
- half-life [1, 19]: 3.35 h
- AUC(0-inf) [1, 20]: 397 ng·h/mL
- AUC(0-t) [1, 20]: 309 ng·h/mL
- Cmax [1, 20]: 277 ng/mL
- Tmax [1, 20]: 0.25 h
- half-life [1, 20]: 1.63 h
- AUC(0-inf) [1, 21]: 260 ng·h/mL
- AUC(0-t) [1, 21]: 199 ng·h/mL
- Cmax [1, 21]: 119 ng/mL
- Tmax [1, 21]: 0.25 h
- half-life [1, 21]: 2.43 h
- adverse reactions ([1]; single oral gavage 15-150 mg/kg, rats): No adverse reactions were observed
- increase in exposure, females compared to males ([1]; within both formulations): > 5 fold
- % Remaining [30 minutes] ([2]; 30 minutes): 32%
- % Remaining [60 minutes] ([2]; 60 minutes): 7%
- Papp A→B at 120 min, 5 μM ([3]; apical to basolateral, read-out: permeability coefficient A-to-B): 34 ×10⁻⁶ cm/s
- Papp B→A at 120 min, 5 μM ([3]; basolateral to apical, read-out: permeability coefficient B-to-A): 38 ×10⁻⁶ cm/s
- efflux [4]: no significant efflux
- permeability classification [4]: highly permeable
- clearance as % of liver blood flow in dog (1.85 L/hr/kg) [5]: approximately 14%
- AUC(0-inf) ([5]; female, beagle, dog, plasma): 5270 ng·h/mL
- AUC(0-t) ([5]; female, beagle, dog, plasma): 5160 ng·h/mL
- clearance ([5]; female, beagle, dog, plasma): 4.17 mL/min/kg
- half-life ([5]; female, beagle, dog, plasma): 2.69 h
- concentration at 0 hr ([5]; female, beagle, dog, plasma, 0 hr, read-out: Average Concentration of HGT3711): 0 ng/mL
- concentration at 0.083 hr ([5]; female, beagle, dog, plasma, 0.083 hr, read-out: Average Concentration of HGT3711): 1840 ng/mL
- concentration at 0.25 hr ([5]; female, beagle, dog, plasma, 0.25 hr, read-out: Average Concentration of HGT3711): 1320 ng/mL
- concentration at 0.5 hr ([5]; female, beagle, dog, plasma, 0.50 hr, read-out: Average Concentration of HGT3711): 1070 ng/mL
- concentration at 1 hr ([5]; female, beagle, dog, plasma, 1.0 hr, read-out: Average Concentration of HGT3711): 717 ng/mL
- concentration at 4 hr ([5]; female, beagle, dog, plasma, 4.0 hr, read-out: Average Concentration of HGT3711): 377 ng/mL
- concentration at 8 hr ([5]; female, beagle, dog, plasma, 8.0 hr, read-out: Average Concentration of HGT3711): 180 ng/mL
- C0 [5, 22]: 2180 ng/mL
- Tmax [5, 22]: 0 h
- Vd ([5]; female, beagle, dog, plasma, read-out: Vss): 0.75 L/kg
